Each compound was assayed against CK2A1 (CK2α/β) (Homo sapiens, UniProt P68400) (assay: CK2 kinase assay, CK2A1 (CK2α/β)). Details: Table A; read-out: CK2A1 (CK2α/β) (IC50).
Format: biochemical

CK2A1 (CK2α/β), sequence (P68400 whole entry, species assumed): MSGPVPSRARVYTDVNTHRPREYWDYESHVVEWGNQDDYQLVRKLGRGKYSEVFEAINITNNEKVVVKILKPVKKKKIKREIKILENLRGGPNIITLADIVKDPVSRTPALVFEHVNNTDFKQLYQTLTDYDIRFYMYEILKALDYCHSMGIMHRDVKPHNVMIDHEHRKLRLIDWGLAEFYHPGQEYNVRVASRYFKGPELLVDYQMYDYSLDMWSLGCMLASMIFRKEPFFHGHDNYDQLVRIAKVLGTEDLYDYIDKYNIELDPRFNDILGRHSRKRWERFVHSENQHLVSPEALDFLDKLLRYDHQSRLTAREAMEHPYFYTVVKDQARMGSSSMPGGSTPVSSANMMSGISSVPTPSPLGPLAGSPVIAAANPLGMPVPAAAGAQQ
CK2A1 (CK2α/β), sequence (P67870 whole entry partner, species assumed): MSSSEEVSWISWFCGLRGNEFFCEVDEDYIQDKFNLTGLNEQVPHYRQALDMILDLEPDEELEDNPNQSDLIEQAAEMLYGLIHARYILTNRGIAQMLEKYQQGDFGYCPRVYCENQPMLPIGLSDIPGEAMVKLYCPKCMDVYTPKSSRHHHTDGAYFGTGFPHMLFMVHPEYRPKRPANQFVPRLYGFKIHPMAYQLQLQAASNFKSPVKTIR

Structure (SMILES)	IC50 [nM]
N#Cc1cc(Nc2nc(NC3CC3)c3ncc(C#N)n3n2)c(Cl)c(N2CCN(C3CN(S(=O)(=O)C4CC4)C3)CC2)c1 [Example 504, 2-[(2-chloro-5-cyano-3-{4-[1-(cyclopropanesulfonyl)azetidin-3-yl]piperazin-1-yl}phenyl)amino]-4-(cyclopropylamino)imidazo[2,1-f][1,2,4]triazine-7-carbonitrile]	4.07
CC(C)(C)[C@H](N)C(=O)N1CC(N2CCN(c3cc(C#N)cc(Nc4nc(NC5CC5)c5ncc(C#N)n5n4)c3Cl)CC2)C1 [Example 505, 2-{[3-(4-{1-[(2S)-2-amino-3,3-dimethylbutanoyl]azetidin-3-yl}piperazin-1-yl)-2-chloro-5-cyanophenyl]amino}-4-(cyclopropylamino)imidazo[2,1-f][1,2,4]triazine-7-carbonitrile]	5.42
N#Cc1cc(Nc2nc(NC3CC3)c3ncc(C#N)n3n2)c(Cl)c(N2CCN(C3CN(C(=O)C4CCC(=O)N4)C3)CC2)c1 (stereo not shown) [Example 506, 2-[(2-chloro-5-cyano-3-{4-[1-(5-oxopyrrolidine-2-carbonyl)azetidin-3-yl]piperazin-1-yl}phenyl)amino]-4-(cyclopropylamino)imidazo[2,1-f][1,2,4]triazine-7-carbonitrile]	4.33
N#Cc1cc(Nc2nc(NC3CC3)c3ncc(C#N)n3n2)c(Cl)c(N2CCN(C3CN(S(=O)(=O)CC(F)(F)F)C3)CC2)c1 [Example 507, 2-[(2-chloro-5-cyano-3-{4-[1-(2,2,2-trifluoroethanesulfonyl)azetidin-3-yl]piperazin-1-yl}phenyl)amino]-4-(cyclopropylamino)imidazo[2,1-f][1,2,4]triazine-7-carbonitrile]	16.9
CCC(C)(O)CC(=O)N1CC(N2CCN(c3cc(C#N)cc(Nc4nc(NC5CC5)c5ncc(C#N)n5n4)c3Cl)CC2)C1 (stereo not shown) [Example 508, 2-[(2-chloro-5-cyano-3-{4-[1-(3-hydroxy-3-methylpentanoyl)azetidin-3-yl]piperazin-1-yl}phenyl)amino]-4-(cyclopropylamino)imidazo[2,1-f][1,2,4]triazine-7-carbonitrile]	4.73
N#Cc1cc(Nc2nc(NC3CC3)c3ncc(C#N)n3n2)c(Cl)c(N2CCN(C3CN(C(=O)C4CCC(O)CC4)C3)CC2)c1 (stereo not shown) [Example 509, 2-[(2-chloro-5-cyano-3-{4-[1-(4-hydroxycyclohexane-carbonyl)azetidin-3-yl]piperazin-1-yl}phenyl)amino]-4-(cyclopropylamino)imidazo[2,1-f][1,2,4]triazine-7-carbonitrile]	5.11
N#Cc1cc(Nc2nc(NC3CC3)c3ncc(C#N)n3n2)c(Cl)c(N2CCN(C3CN(C(=O)[C@H](O)C(F)(F)F)C3)CC2)c1 [Example 510, 2-{[2-chloro-5-cyano-3-(4-{1-[(2S)-3,3,3-trifluoro-2-hydroxypropanoyl]azetidin-3-yl}piperazin-1-yl)phenyl]amino}-4-(cyclopropylamino)imidazo[2,1-f][1,2,4]triazine-7-carbonitrile]	4.24
CCOCCC(=O)N1CC(N2CCN(c3cc(C#N)cc(Nc4nc(NC5CC5)c5ncc(C#N)n5n4)c3Cl)CC2)C1 [Example 511, 2-[(2-chloro-5-cyano-3-{4-[1-(3-ethoxypropanoyl)azetidin-3-yl]piperazin-1-yl}phenyl)amino]-4-(cyclopropylamino)imidazo[2,1-f][1,2,4]triazine-7-carbonitrile]	4.62
N#Cc1cc(Nc2nc(NC3CC3)c3ncc(C#N)n3n2)c(Cl)c(N2CCN(C3CN(C(=O)C4CCC(O)CC4)C3)CC2)c1 (stereo not shown) [Example 512, 2-[(2-chloro-5-cyano-3-{4-[1-(4-hydroxycyclohexane-carbonyl)azetidin-3-yl]piperazin-1-yl}phenyl)amino]-4-(cyclopropylamino)imidazo[2,1-f][1,2,4]triazine-7-carbonitrile]	5.8
CO[C@H](C)C(=O)N1CC(N2CCN(c3cc(C#N)cc(Nc4nc(NC5CC5)c5ncc(C#N)n5n4)c3Cl)CC2)C1 [Example 513, 2-{[2-chloro-5-cyano-3-(4-{1-[(2R)-2-methoxypropanoyl]azetidin-3-yl}piperazin-1-yl)phenyl]amino}-4-(cyclopropylamino)imidazo[2,1-f][1,2,4]triazine-7-carbonitrile]	3.08
C[C@H](O)CC(=O)N1CC(N2CCN(c3cc(C#N)cc(Nc4nc(NC5CC5)c5ncc(C#N)n5n4)c3Cl)CC2)C1 [Example 514, 2-{[2-chloro-5-cyano-3-(4-{1-[(3S)-3-hydroxybutanoyl]azetidin-3-yl}piperazin-1-yl)phenyl]amino}-4-(cyclopropylamino)imidazo[2,1-f][1,2,4]triazine-7-carbonitrile]	3.9
CC1(C(=O)N2CC(N3CCN(c4cc(C#N)cc(Nc5nc(NC6CC6)c6ncc(C#N)n6n5)c4Cl)CC3)C2)COC1 [Example 515, 2-[(2-chloro-5-cyano-3-{4-[1-(3-methyloxetane-3-carbonyl)azetidin-3-yl]piperazin-1-yl}phenyl)amino]-4-(cyclopropylamino)imidazo[2,1-f][1,2,4]triazine-7-carbonitrile]	4.84
CC(F)(F)C(=O)N1CC(N2CCN(c3cc(C#N)cc(Nc4nc(NC5CC5)c5ncc(C#N)n5n4)c3Cl)CC2)C1 [Example 516, 2-[(2-chloro-5-cyano-3-{4-[1-(2,2-difluoropropanoyl)azetidin-3-yl]piperazin-1-yl}phenyl)amino]-4-(cyclopropylamino)imidazo[2,1-f][1,2,4]triazine-7-carbonitrile]	4.09
N#Cc1cc(Nc2nc(NC3CC3)c3ncc(C#N)n3n2)c(Cl)c(N2CCN(C3CN(C(=O)C4CCCO4)C3)CC2)c1 (stereo not shown) [Example 517, 2-[(2-chloro-5-cyano-3-{4-[1-(oxolane-2-carbonyl)azetidin-3-yl]piperazin-1-yl}phenyl)amino]-4-(cyclopropylamino)imidazo[2,1-f][1,2,4]triazine-7-carbonitrile]	3.66
CC(C)OC(=O)N1CC(N2CCN(c3cc(C#N)cc(Nc4nc(NC5CC5)c5ncc(C#N)n5n4)c3Cl)CC2)C1 [Example 518, propan-2-yl 3-[4-(2-chloro-5-cyano-3-{[7-cyano-4-(cyclopropylamino)imidazo[2,1-f][1,2,4]triazin-2-yl]amino}phenyl)piperazin-1-yl]azetidine-1-carboxylate]	10.3

Second part, the compound after the results:

IC50 [nM]	Structure (SMILES)
3.2	N#Cc1cc(Nc2nc(NC3CC3)c3ncc(C#N)n3n2)c(Cl)c(N2CCN(C3CN(C(=O)CC(N)=O)C3)CC2)c1 [Example 519, 3-{3-[4-(2-chloro-5-cyano-3-{[7-cyano-4-(cyclopropylamino)imidazo[2,1-f][1,2,4]triazin-2-yl]amino}phenyl)piperazin-1-yl]azetidin-1-yl}-3-oxopropanamide]
4.96	CCOC1CC1C(=O)N1CC(N2CCN(c3cc(C#N)cc(Nc4nc(NC5CC5)c5ncc(C#N)n5n4)c3Cl)CC2)C1 (stereo not shown) [Example 520, 2-[(2-chloro-5-cyano-3-{4-[1-(2-ethoxycyclopropane-carbonyl)azetidin-3-yl]piperazin-1-yl}phenyl)amino]-4-(cyclopropylamino)imidazo[2,1-f][1,2,4]triazine-7-carbonitrile]
3.35	CO[C@@H](C)C(=O)N1CC(N2CCN(c3cc(C#N)cc(Nc4nc(NC5CC5)c5ncc(C#N)n5n4)c3Cl)CC2)C1 [Example 521, 2-{[2-chloro-5-cyano-3-(4-{1-[(2S)-2-methoxypropanoyl]azetidin-3-yl}piperazin-1-yl)phenyl]amino}-4-(cyclopropylamino)imidazo[2,1-f][1,2,4]triazine-7-carbonitrile]
3.69	CC1(C(=O)N2CC(N3CCN(c4cc(C#N)cc(Nc5nc(NC6CC6)c6ncc(C#N)n6n5)c4Cl)CC3)C2)COC1 [Example 522, 2-[(2-chloro-5-cyano-3-{4-[1-(3-methyloxetane-3-carbonyl)azetidin-3-yl]piperazin-1-yl}phenyl)amino]-4-(cyclopropylamino)imidazo[2,1-f][1,2,4]triazine-7-carbonitrile]
4.77	N#Cc1cc(Nc2nc(NC3CC3)c3ncc(C#N)n3n2)c(Cl)c(N2CCN(C3CN(C(=O)C4CCOC4)C3)CC2)c1 (stereo not shown) [Example 523, 2-[(2-chloro-5-cyano-3-{4-[1-(oxolane-3-carbonyl)azetidin-3-yl]piperazin-1-yl}phenyl)amino]-4-(cyclopropylamino)imidazo[2,1-f][1,2,4]triazine-7-carbonitrile]
7.45	CCC(CO)(CO)C(=O)N1CC(N2CCN(c3cc(C#N)cc(Nc4nc(NC5CC5)c5ncc(C#N)n5n4)c3Cl)CC2)C1 [Example 524, 2-{[3-(4-{1-[2,2-bis(hydroxymethyl)butanoyl]azetidin-3-yl}piperazin-1-yl)-2-chloro-5-cyanophenyl]amino}-4-(cyclopropylamino)imidazo[2,1-f][1,2,4]triazine-7-carbonitrile]
3.2	N#Cc1cc(Nc2nc(NC3CC3)c3ncc(C#N)n3n2)c(Cl)c(N2CCC(C3COC3)CC2)c1 [Example 525, 2-((2-chloro-5-cyano-3-(4-(oxetan-3-yl)piperidin-1-yl)phenyl)amino)-4-(cyclopropylamino)imidazo[2,1-f][1,2,4]triazine-7-carbonitrile]
0.42	N#Cc1cc(Nc2nc(NC3CC3)c3ncc(C#N)n3n2)c(Cl)c(N2CCC(C(CO)CO)CC2)c1 [Example 526, 2-((2-chloro-5-cyano-3-(4-(1,3-dihydroxypropan-2-yl)piperidin-1-yl)phenyl)amino)-4-(cyclopropylamino)imidazo[2,1-f][1,2,4]triazine-7-carbonitrile]
1.91	CC1(C)CC(CN2CCN(c3cc(C#N)cc(Nc4nc(NC5CC5)c5ncc(C#N)n5n4)c3Cl)CC2)O1 (stereo not shown) [Example 527, 2-((2-chloro-5-cyano-3-(4-((4,4-dimethyloxetan-2-yl)methyl)piperazin-1-yl)phenyl)amino)-4-(cyclopropylamino)imidazo[2,1-f][1,2,4]triazine-7-carbonitrile]
0.4	C[C@@H]1CC(CN2CCN(c3cc(C#N)cc(Nc4nc(NC5CC5)c5ncc(C#N)n5n4)c3Cl)CC2)O1 (stereo partly drawn) [Example 528, 2-((2-chloro-5-cyano-3-(4-(((4R)-4-methyloxetan-2-yl)methyl)piperazin-1-yl)phenyl)amino)-4-(cyclopropylamino)imidazo[2,1-f][1,2,4]triazine-7-carbonitrile]

Source: patent US9273057B2 (Bristol-Myers Squibb Company, priority 2012, dated 2016)
